{
  "source": "patent US20040192782A1",
  "about": "“Erucamide compounds for the treatment and prevention to disturbances of the secretory system” (priority 2001, published 2004)",
  "key": {"[1]": {"system": "cholera toxin induced diarrhea in the jejunum of the rat", "settings": "in vivo"}, "[2]": {"system": "CSF production", "settings": "in vivo; cited from earlier work"}, "[3]": {"system": "transport of Na+ from plasma to CSF", "assay": "CSF production measured as 22Na+ transport from plasma to CSF after intraventricular administration", "assay_type": "in vivo, rat", "settings": "5 μl/min, 300 g rats under halothan, 22Na+ i.v. 30 min after erucamide", "excerpt": "Effect of erucamide and analogues thereof on CSF production Production of CSF depends mainly on active transport of Na^+ from the blood to the brain ventricles (Davson and Segal, 1970). Water then follows the net transport of Na^+ and other ions to maintain osmotic balance. Therefore, formation of CSF is directly proportional to Na^+ transport into the ventricular cavities. A simple technique to measure CSF production is to determine the turnover of plasma Na^+ into CSF. The method involves maintenance of a steady state level of ^22Na^+ in plasma and sampling ^22Na^+ in the CSF at various times after injection of the isotope (Knuckey et al., 1991). […] A 2-3 mm long micro-dialysis tubing, connecting 2 polyethylene tubings, was permanently placed in the cisterna magna for sampling of CSF. […] Blood samples were taken from the tail veins at 15, 30, 90 and 180 min. Blood and CSF samples were analyzed for radioactivity. Intraventricularly administered erucamide reduced by over 40% the transport of Na^+ from plasma to CSF."}},
  "data": [
    {"compound": "CCCCC/C=C\\C/C=C\\C/C=C\\C/C=C\\CCCC(=O)O", "note": "[Arachidonic acid, reference compound]", "values": [
      {"measurement": "Antisecretory activity relative to erucamide activity", "setting": "[1]", "result": "less than 20 % of the erucamide activity"}
    ]},
    {"compound": "CCCCCCCC/C=C\\CCCCCCCCCCCC(=O)O", "note": "[Erucic acid, cis-13-docosenoic acid, reference compound]", "values": [
      {"measurement": "Antisecretory activity in the rat intestine model (in words)", "setting": "[1]", "result": "does not display any antisecretory activity"}
    ]},
    {"compound": "CC(=O)Nc1nnc(S(N)(=O)=O)s1", "note": "[aztzoiamide]", "values": [
      {"measurement": "Inhibition of CSF production", "setting": "[2]", "result": 50, "unit": "%"}
    ]},
    {"compound": "CCCCCCCC/C=C\\CCCCCCCCCCCC(N)=O", "note": "[erucamide, cis-13-docosenoamide]", "values": [
      {"measurement": "Dose giving maximal antisecretory activity, expressed as concentration", "setting": "[1]", "result": 0.3, "unit": "pM"},
      {"measurement": "Dose giving maximal antisecretory activity", "setting": "[1]; iv", "result": "1×10^−10 g/kg/dose"},
      {"measurement": "Maximal antisecretory activity (inhibition of cholera toxin induced diarrhea)", "setting": "[1]; iv", "result": 75, "unit": "% inhibition"},
      {"measurement": "Reduction of transport of Na+ from plasma to CSF", "setting": "[3]", "result": "over 40%"}
    ]}
  ]
}
